Three molecules from article PMC5458211, “Mitochondrial VDAC1-based peptides: Attacking oncogenic properties in glioblastoma” (Oncotarget, 2017) can be followed below.

Non-standard residues stand in square brackets, D forms with d. Residues, ends and D or L forms follow the SMILES beside them.

In test [1] the test system is primary brain cells (PBCs). The test is described as follows: Cell death by PI staining and flow cytometry, primary brain cells. The settings on record: mouse PBCs, 6 h at 37°C, serum-free medium, PI staining; Fig 1I-1K. The class given is cell-based. The text has this:
Figure 1 VDAC1-based peptides induce dramatic cell death of several brain tumor-derived cell lines but to lesser extent in primary brain cells A. IHC staining of VDAC1 of human normal brain (n=13) or glioblastoma (n=41) in tissue array slides (Biomax), as described in Materials and methods available online in Supplemental information. Percentages of sections stained at the intensity indicated are shown. […] The VDAC1-derived sequences Δ(1-14)N-terminus and LP4 are in green and pink, respectively. The cell-penetrating peptides Antp and Tf are in orange and blue, respectively. The loop shape of LP4 stabilized by a tryptophan zipper is in purple. The amino acids of Δ(1-14)N-terminus, LP4 and Antp are in the D configuration. The sequences of D-LP4 and Retro-D-LP4 are presented below. C. Immunoblot analysis of VDAC1, HK-I, Bcl-2 and Transferrin receptor (TfR) expression in brain tumor-derived cell lines using specific antibodies, as described in Materials and methods available online in Supplemental information. […] Cells were harvested, washed twice with PBS and cell death was analyzed by propidium iodide (PI) staining and flow cytometry. H. IC50 values (μM) for pepdide inducing cell death as derived from D-G. The results shown correspond to means ± SD (n=3). […] Cells were harvested, washed twice with PBS and cell death was analyzed by PI staining and flow cytometry. […]
Cells (6×10^5 /ml) were incubated in 500 μl serum-free medium with the peptide of interest for 6 h at 37°C in the presence of 5% CO2. The cells were then trypsinized, centrifuged (1500xg, 5 min), washed with PBS and analyzed for cell death using propidium iodide (PI) staining and flow cytometer (Beckton-Dickinson, San Jose, CA) and BD CellQuest Pro software. Apoptotic cell death was also analyzed by PI and annexin V-FITC staining, and by acridine orange and ethidium bromide staining and light microscopy (Olympus LX2-KSP).
For orientation: Flow cytometry measures light scatter and fluorescence of single cells or particles in a stream.

In another test the test system is HK-I-GFP. The test is described as follows: HK-I-GFP detachment from mitochondria by confocal microscopy, SH-SY5Y. The class given is cell-based, human. To be noted: 7 μM, 3 h, serum-free medium, Suppl Fig 2A. The procedure:
Mitochondrial VDAC1-based peptides: Attacking oncogenic properties in glioblastoma […]
Cell culture cells were fixed for 15 min using 4% paraformaldehyde prepared in PBS, rinsed with PBS, permabilized with 0.3%
Human glioblastoma U-87MG, U-118MG, CRL- PBST, and stained with DAPI (1:2000). Cell imaging was 2610 (LN-18), U-251MG, human neuroblastoma SH- carried out by confocal microscopy (Olympus 1X81).
SY5Y, mouse glioma GL-261 and mouse neuroblastoma […]
Cellular ATP levels were estimated using a luciferase-based assay (CellTiter-Glo, Promega). […] ATP levels were cytosol was analyzed by immunoblotting. […]
luminescence was recorded using an Infinite M1000 plate peptide (3, 5, 10 μM for 3h), harvested, washed with reader (Tecan, Männedorf, Switzerland). […]
ﬂuoride) containing 0.02% digitonin and incubated for Mitochondrial membrane potential (ΔΨ) was 10 min on ice. Samples were centrifuged at 12,000xg at determined using tetramethylrhodamine methylester 4°C for 10 min to obtain supernatants (cytosolic extracts (TMRM) dye. U-87MG cells (6×10^5/ml) were incubated free of mitochondria) that were analyzed by SDS-PAGE with the indicated concentrations of D-ΔN-Ter-Antp and immuno-probed using anti-hexokinase antibodies, peptide for 3 h, washed twice with PBS, incubated with and then with secondary HRP-conjugated anti-rabbit tetramethylrhodamine methyl ester (TMRM, 800 nM, antibodies. […]

Turning to `CC[C@H](C)[C@H](NC(=O)[C@H](Cc1ccc(O)cc1)NC(=O)[C@@H]1CCCN1C(=O)[C@H](CCCNC(=N)N)NC(=O)[C@H](Cc1c[nH]cn1)NC(=O)[C@H](CO)NC(=O)[C@H](Cc1c[nH]c2ccccc12)NC(=O)[C@@H](NC(=O)[C@H](Cc1c[nH]c2ccccc12)NC(=O)[C@H](CCC(=O)O)NC(=O)[C@@H](CCCCN)NC(=O)[C@@H](CCCCN)NC(=O)[C@@H](CC(C)C)NC(=O)[C@@H](CCC(=O)O)NC(=O)[C@H](NC(=O)[C@@H](C)NC(=O)[C@H](NC(=O)[C@@H](CC(N)=O)NC(=O)[C@@H](CC(C)C)NC(=O)[C@@H](C)NC(=O)[C@@H](Cc1c[nH]c2ccccc12)NC(=O)[C@H](NC(=O)[C@@H](C)NC(=O)CNC(=O)[C@@H](CC(N)=O)NC(=O)[C@@H](CO)NC(=O)[C@@H](CC(N)=O)NC(=O)[C@H](CCCCN)NC(=O)[C@H](Cc1c[nH]c2ccccc12)NC(=O)[C@@H](NC(=O)[C@H](Cc1c[nH]c2ccccc12)NC(=O)[C@@H](N)CCCCN)[C@@H](C)O)[C@H](C)O)C(C)C)[C@H](C)O)[C@@H](C)O)C(=O)N[C@@H](C)C(=O)N[C@@H](Cc1c[nH]cn1)C(=O)O` [Retro-Tf-D-LP4], in test [1], the “cell death in primary brain cells as compared to U-87MG cells” value (shortened to “cell death … compared to U-87MG cells”) is listed as “lesser extent”.

On to `CC[C@@H](C)[C@@H](NC(=O)[C@@H](CCCCN)NC(=O)[C@H](NC(=O)[C@@H](CCC(N)=O)NC(=O)[C@@H](CCCNC(=N)N)NC(=O)[C@@H](CC(C)C)NC(=O)CNC(=O)[C@@H](Cc1ccccc1)NC(=O)CNC(=O)[C@@H](Cc1ccc(O)cc1)NC(=O)CNC(=O)[C@@H](CCCCN)NC(=O)[C@H](NC(=O)[C@@H](Cc1ccccc1)NC(=O)[C@H](NC(=O)[C@@H](CC(=O)O)NC(=O)[C@H](N)CCCNC(=N)N)C(C)C)[C@H](C)O)[C@H](C)CC)C(=O)N[C@H](Cc1c[nH]c2ccccc12)C(=O)N[C@H](Cc1ccccc1)C(=O)N[C@H](CCC(N)=O)C(=O)N[C@H](CC(N)=O)C(=O)N[C@H](CCCNC(=N)N)C(=O)N[C@H](CCCNC(=N)N)C(=O)N[C@H](CCSC)C(=O)N[C@H](CCCCN)C(=O)N[C@H](Cc1c[nH]c2ccccc12)C(=O)N[C@H](CCCCN)C(=O)N[C@H](CCCCN)C(=O)O` [D-ΔN-Ter-Antp] (H-[dR][dD][dV][dF][dT][dK]G[dY]G[dF]G[dL][dR][dQ][dI][dK][dI][dW][dF][dQ][dN][dR][dR][dM][dK][dW][dK][dK]-OH; N-terminus and C-terminus assumed), for which, in test [1], the “cell death … compared to U-87MG cells” value is “lesser extent”. For the same molecule, the “HK-I-GFP detachment (fluorescence distribution)” value in the test on HK-I-GFP is on record as “became diffuse”.

For `CC[C@H](C)[C@H](NC(=O)[C@H](C)NC(=O)[C@@H](N)Cc1c[nH]cn1)C(=O)N[C@@H](Cc1ccc(O)cc1)C(=O)N1CCC[C@H]1C(=O)N[C@@H](CCCNC(=N)N)C(=O)N[C@@H](Cc1c[nH]cn1)C(=O)N[C@@H](CO)C(=O)N[C@@H](Cc1c[nH]c2ccccc12)C(=O)N[C@H](C(=O)N[C@@H](Cc1c[nH]c2ccccc12)C(=O)N[C@@H](CCC(=O)O)C(=O)N[C@H](CCCCN)C(=O)N[C@H](CCCCN)C(=O)N[C@H](CC(C)C)C(=O)N[C@H](CCC(=O)O)C(=O)N[C@@H](C(=O)N[C@H](C)C(=O)N[C@@H](C(=O)N[C@H](CC(N)=O)C(=O)N[C@H](CC(C)C)C(=O)N[C@H](C)C(=O)N[C@H](Cc1c[nH]c2ccccc12)C(=O)N[C@@H](C(=O)N[C@H](C)C(=O)NCC(=O)N[C@H](CC(N)=O)C(=O)N[C@H](CO)C(=O)N[C@H](CC(N)=O)C(=O)N[C@@H](CCCCN)C(=O)N[C@@H](Cc1c[nH]c2ccccc12)C(=O)N[C@H](C(=O)N[C@@H](Cc1c[nH]c2ccccc12)C(=O)N[C@@H](CCCCN)C(=O)O)[C@@H](C)O)[C@H](C)O)C(C)C)[C@H](C)O)[C@@H](C)O` [Tf-D-LP4], in test [1], the “cell death … compared to U-87MG cells” value is listed as “lesser extent”. Moreover, the “HK-I-GFP detachment (fluorescence distribution)” value in the test on HK-I-GFP is reported as “became diffuse”.
